Measured values as given in ChEMBL document CHEMBL1201862, “PubChem BioAssay data set” (2004).
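How tested: cells in 96-well plates exposed to compound for 48 hours at five concentrations. GI50 marks 50% less growth.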 Activity calls are given as the source filed them. Rule as the data show it: active = GI50 up to about 1.1 µM and inactive = higher.

Assays:
Assay in all cases: growth of human tumour cells (NCI), 48 h
ACHN = test system: ACHN
BT-549 = test system: BT-549
DU-145 = test system: DU-145
HOP-92 = test system: HOP-92
K562 = test system: K562
M14 = test system: M14
MDA-MB-231 = test system: MDA-MB-231
MDA-N = test system: MDA-N
NCI-H23 = test system: NCI-H23
NCI/ADR-RES = test system: NCI/ADR-RES
OVCAR-3 = test system: OVCAR-3
SF-268 = test system: SF-268
SK-MEL-2 = test system: SK-MEL-2
SW-620 = test system: SW-620
T47D = test system: T47D
UACC-62 = test system: UACC-62
CCRF-CEM = test system: CCRF-CEM
NCI-H522 = test system: NCI-H522

O=C1C=CC2(C=C1)O[C@H](COCc1ccccc1)[C@@H](COCc1ccccc1)O2
GI50 (ACHN): 1.58 µM (inactive)
GI50 (BT-549): 0.792 µM (active)
GI50 (DU-145): 2.7 µM (inactive)
GI50 (HOP-92): 1.01 µM (active)
GI50 (K562): 2.25 µM (inactive)
GI50 (M14): 1.78 µM (inactive)
GI50 (MDA-MB-231): 3.65 µM (inactive)
GI50 (MDA-N): 1.52 µM (inactive)
GI50 (NCI-H23): 1.77 µM (inactive)
GI50 (NCI/ADR-RES): 1.83 µM (inactive)
GI50 (OVCAR-3): 2.37 µM (inactive)
GI50 (SF-268): 1.64 µM (inactive)
GI50 (SK-MEL-2): 1.71 µM (inactive)
GI50 (SW-620): 0.271 µM (active)
GI50 (T47D): 2.04 µM (inactive)
GI50 (UACC-62): 1.88 µM (inactive)

N#CCOc1ccc(/C=C/C(=O)c2ccc(Cl)cc2)cc1
GI50 (ACHN): 34.8 µM (inactive)
GI50 (BT-549): 3.62 µM (inactive)
GI50 (CCRF-CEM): 26.5 µM (inactive)
GI50 (DU-145): 66.4 µM (inactive)
GI50 (HOP-92): 32 µM (inactive)
GI50 (K562): 26 µM (inactive)
GI50 (M14): 37 µM (inactive)
GI50 (MDA-MB-231): 25.4 µM (inactive)
GI50 (MDA-N): 32.4 µM (inactive)
GI50 (NCI-H23): 24.8 µM (inactive)
GI50 (NCI-H522): > 10 µM (inactive)
GI50 (NCI/ADR-RES): 23.9 µM (inactive)
GI50 (OVCAR-3): 31.8 µM (inactive)
GI50 (SF-268): 33.9 µM (inactive)
GI50 (SW-620): 22.1 µM (inactive)
GI50 (T47D): 19.9 µM (inactive)
GI50 (UACC-62): 19 µM (inactive)

Cc1nnc2n1-c1ccccc1C(=S)N1CSCC21 (stereo not given)
GI50 (ACHN): > 100 µM (inactive)
GI50 (BT-549): > 100 µM (inactive)
GI50 (CCRF-CEM): > 100 µM (inactive)
GI50 (DU-145): > 100 µM (inactive)
GI50 (K562): > 100 µM (inactive)
GI50 (M14): > 100 µM (inactive)
GI50 (MDA-MB-231): > 100 µM (inactive)
GI50 (MDA-N): > 100 µM (inactive)
GI50 (NCI-H522): > 100 µM (inactive)
GI50 (NCI/ADR-RES): > 100 µM (inactive)
GI50 (OVCAR-3): > 100 µM (inactive)
GI50 (SF-268): > 100 µM (inactive)
GI50 (SK-MEL-2): > 100 µM (inactive)
GI50 (SW-620): > 100 µM (inactive)
GI50 (T47D): > 100 µM (inactive)
GI50 (UACC-62): > 100 µM (inactive)

C/C(=N\C1CCCCC1)c1ccccc1O
GI50 (ACHN): > 100 µM (inactive)
GI50 (BT-549): > 100 µM (inactive)
GI50 (CCRF-CEM): 54 µM (inactive)
GI50 (DU-145): > 100 µM (inactive)
GI50 (HOP-92): > 100 µM (inactive)
GI50 (K562): > 100 µM (inactive)
GI50 (M14): > 100 µM (inactive)
GI50 (MDA-MB-231): > 100 µM (inactive)
GI50 (MDA-N): > 100 µM (inactive)
GI50 (NCI-H23): > 100 µM (inactive)
GI50 (NCI-H522): 34.2 µM (inactive)
GI50 (NCI/ADR-RES): > 100 µM (inactive)
GI50 (SF-268): > 100 µM (inactive)
GI50 (SK-MEL-2): > 100 µM (inactive)
GI50 (SW-620): > 100 µM (inactive)
GI50 (T47D): > 100 µM (inactive)
GI50 (UACC-62): > 100 µM (inactive)

O=C(/C=C1/Nc2ccc([N+](=O)[O-])cc2N/C1=C/C(=O)c1ccc(Cl)cc1)c1ccc(Cl)cc1
GI50 (ACHN): > 100 µM (inactive)
GI50 (BT-549): > 100 µM (inactive)
GI50 (CCRF-CEM): 34.4 µM (inactive)
GI50 (DU-145): > 100 µM (inactive)
GI50 (K562): 31.9 µM (inactive)
GI50 (M14): > 100 µM (inactive)
GI50 (MDA-MB-231): > 100 µM (inactive)
GI50 (MDA-N): > 100 µM (inactive)
GI50 (NCI-H23): 11.6 µM (inactive)
GI50 (NCI-H522): 4.41 µM (inactive)
GI50 (NCI/ADR-RES): 43.2 µM (inactive)
GI50 (OVCAR-3): 80.2 µM (inactive)
GI50 (SF-268): 60.5 µM (inactive)
GI50 (SK-MEL-2): 13.6 µM (inactive)
GI50 (T47D): > 100 µM (inactive)
GI50 (UACC-62): 49.4 µM (inactive)

O=C(O)C/N=C(\C(=N\CC(=O)O)c1ccccc1)c1ccccc1
GI50 (ACHN): > 100 µM (inactive)
GI50 (BT-549): > 100 µM (inactive)
GI50 (DU-145): > 100 µM (inactive)
GI50 (K562): > 100 µM (inactive)
GI50 (M14): > 100 µM (inactive)
GI50 (MDA-MB-231): > 100 µM (inactive)
GI50 (MDA-N): > 100 µM (inactive)
GI50 (NCI-H23): > 100 µM (inactive)
GI50 (NCI-H522): > 100 µM (inactive)
GI50 (NCI/ADR-RES): > 100 µM (inactive)
GI50 (OVCAR-3): > 100 µM (inactive)
GI50 (SF-268): > 100 µM (inactive)
GI50 (SK-MEL-2): > 100 µM (inactive)
GI50 (SW-620): > 100 µM (inactive)
GI50 (T47D): 68.5 µM (inactive)
GI50 (UACC-62): > 100 µM (inactive)

CN(C)c1ccc(-c2ccc(N(C)C)c3n[se]nc23)c2n[se]nc12
GI50 (ACHN): > 100 µM (inactive)
GI50 (BT-549): > 100 µM (inactive)
GI50 (CCRF-CEM): > 100 µM (inactive)
GI50 (DU-145): > 100 µM (inactive)
GI50 (HOP-92): > 100 µM (inactive)
GI50 (K562): > 100 µM (inactive)
GI50 (MDA-MB-231): > 100 µM (inactive)
GI50 (MDA-N): > 100 µM (inactive)
GI50 (NCI-H23): > 100 µM (inactive)
GI50 (NCI-H522): > 100 µM (inactive)
GI50 (NCI/ADR-RES): > 100 µM (inactive)
GI50 (OVCAR-3): > 100 µM (inactive)
GI50 (SF-268): > 100 µM (inactive)
GI50 (SK-MEL-2): > 100 µM (inactive)
GI50 (SW-620): > 100 µM (inactive)
GI50 (T47D): > 100 µM (inactive)
GI50 (UACC-62): > 100 µM (inactive)

O=C1c2ccccc2C(=O)N1n1c(Cc2ccc(Cl)cc2)n[nH]c1=O
GI50 (ACHN): > 100 µM (inactive)
GI50 (BT-549): > 100 µM (inactive)
GI50 (CCRF-CEM): > 100 µM (inactive)
GI50 (DU-145): > 100 µM (inactive)
GI50 (HOP-92): > 100 µM (inactive)
GI50 (K562): > 100 µM (inactive)
GI50 (M14): > 100 µM (inactive)
GI50 (MDA-MB-231): > 100 µM (inactive)
GI50 (MDA-N): > 100 µM (inactive)
GI50 (NCI-H23): > 100 µM (inactive)
GI50 (NCI/ADR-RES): > 100 µM (inactive)
GI50 (OVCAR-3): > 100 µM (inactive)
GI50 (SK-MEL-2): > 100 µM (inactive)
GI50 (SW-620): > 100 µM (inactive)
GI50 (T47D): > 100 µM (inactive)
GI50 (UACC-62): > 100 µM (inactive)

COc1cc(CC2C(=O)OCC2Cc2ccc(OC)c(OC)c2)ccc1O (stereo not given)
GI50 (ACHN): > 88.9 µM (inactive)
GI50 (BT-549): > 55.2 µM (inactive)
GI50 (DU-145): > 100 µM (inactive)
GI50 (HOP-92): 29.5 µM (inactive)
GI50 (M14): > 100 µM (inactive)
GI50 (MDA-MB-231): 74.3 µM (inactive)
GI50 (MDA-N): > 100 µM (inactive)
GI50 (NCI-H23): 10.9 µM (inactive)
GI50 (NCI-H522): > 100 µM (inactive)
GI50 (NCI/ADR-RES): 43.6 µM (inactive)
GI50 (OVCAR-3): > 91.8 µM (inactive)
GI50 (SF-268): > 100 µM (inactive)
GI50 (SK-MEL-2): > 100 µM (inactive)
GI50 (SW-620): > 100 µM (inactive)
GI50 (T47D): 28.6 µM (inactive)
GI50 (UACC-62): > 100 µM (inactive)

COc1ccc(/C(C)=N/NC(=O)c2ccncc2)c(OC)c1
GI50 (BT-549): > 10 µM (inactive)
GI50 (CCRF-CEM): > 10 µM (inactive)
GI50 (DU-145): > 10 µM (inactive)
GI50 (HOP-92): > 10 µM (inactive)
GI50 (K562): > 10 µM (inactive)
GI50 (M14): > 10 µM (inactive)
GI50 (MDA-MB-231): > 10 µM (inactive)
GI50 (MDA-N): > 10 µM (inactive)
GI50 (NCI-H23): > 10 µM (inactive)
GI50 (NCI/ADR-RES): > 10 µM (inactive)
GI50 (SF-268): > 10 µM (inactive)
GI50 (SW-620): > 10 µM (inactive)
GI50 (T47D): > 10 µM (inactive)
GI50 (UACC-62): > 10 µM (inactive)

N#Cc1c(C#N)c(-c2ccccc2)n(-c2ccccc2)c1N
GI50 (ACHN): 50.7 µM (inactive)
GI50 (BT-549): 48.4 µM (inactive)
GI50 (CCRF-CEM): 87.5 µM (inactive)
GI50 (DU-145): 85.7 µM (inactive)
GI50 (K562): 19.7 µM (inactive)
GI50 (M14): > 100 µM (inactive)
GI50 (MDA-MB-231): > 100 µM (inactive)
GI50 (MDA-N): > 100 µM (inactive)
GI50 (NCI-H23): 80.7 µM (inactive)
GI50 (NCI-H522): 41.9 µM (inactive)
GI50 (NCI/ADR-RES): > 100 µM (inactive)
GI50 (OVCAR-3): > 100 µM (inactive)
GI50 (SF-268): 88.3 µM (inactive)
GI50 (SK-MEL-2): 99.1 µM (inactive)
GI50 (SW-620): > 100 µM (inactive)
GI50 (T47D): 6.52 µM (inactive)
GI50 (UACC-62): 69.5 µM (inactive)

CCN(CC)c1ccc(C2NC(=O)c3ccccc3N2)cc1 (stereo not given)
GI50 (ACHN): 7.03 µM (inactive)
GI50 (BT-549): > 100 µM (inactive)
GI50 (CCRF-CEM): 0.641 µM (active)
GI50 (DU-145): 1.48 µM (inactive)
GI50 (HOP-92): 3.05 µM (inactive)
GI50 (K562): 1.27 µM (inactive)
GI50 (M14): 2.93 µM (inactive)
GI50 (MDA-MB-231): 1.88 µM (inactive)
GI50 (MDA-N): 0.847 µM (active)
GI50 (NCI-H23): 2.77 µM (inactive)
GI50 (NCI-H522): 14.8 µM (inactive)
GI50 (NCI/ADR-RES): 1.85 µM (inactive)
GI50 (OVCAR-3): 2.82 µM (inactive)
GI50 (SF-268): 8.57 µM (inactive)
GI50 (SW-620): 1.5 µM (inactive)
GI50 (T47D): > 100 µM (inactive)
GI50 (UACC-62): 3.1 µM (inactive)
